Experimental data as given in US9566312B2, “Cyclic peptides and use as medicines” (priority 2012, dated 2017).
Read-outs that look alike come from different tables or passages of the source. Starred links: 1 amine or outer side, 2 acyl side, 3 side chain; linkers in the order of their positions; H or OH if unused. Non-standard residues stand in square brackets, D forms with d. Residues, ends and D or L forms follow the SMILES beside them. X61 = C[C@@H]1CN(CCOC[C@@H](C)[C@@H](C(=O)[*:2])N(C)[*:1])[C@H](C)CO1; X27 = C[C@H](COCC(=O)N1CCN(C2CCOCC2)CC1)[C@@H](C(=O)[*:2])N(C)[*:1]; X75 = C[C@H](CCC(C)(C)OC(=O)N1CCN(C)CC1)[C@@H](C(=O)[*:2])N(C)[*:1]; X45 = C[C@H](CCC(=O)N1CC2CCC(C1)O2)[C@@H](C(=O)[*:2])N(C)[*:1]; X54 = CCOC(=O)N1CCN(C[C@@H](C)[C@@H](C(=O)[*:2])N(C)[*:1])CC1; X73 = CO[C@H]1CCN(CCOC[C@@H](C)[C@@H](C(=O)[*:2])N(C)[*:1])C1; X78 = CC(C)N1CCN(CCOC[C@@H](C)[C@@H](C(=O)[*:2])N(C)[*:1])CC1; X49 = C[C@H](CCC(=O)N1CCN(C)CC1)[C@@H](C(=O)[*:2])N(C)[*:1]; X35 = C[C@H](CN1CCC2(CC1)OCCO2)[C@@H](C(=O)[*:2])N(C)[*:1]; X51 = C[C@H](CN1CCC2(COC2)C1)[C@@H](C(=O)[*:2])N(C)[*:1]; X50 = C[C@H](CN1CCNC(=O)C1)[C@@H](C(=O)[*:2])N(C)[*:1]; MeBmt = C/C=C/C[C@@H](C)[C@@H](O)[C@H](NC)C(=O)O; NMeL = CN[C@@H](CC(C)C)C(=O)O; NMeV = CN[C@H](C(=O)O)C(C)C; dNMeA = CN[C@H](C)C(=O)O; Abu = CC[C@H](N)C(=O)O

Legend:
[1] = biological target: CypF (Homo sapiens (Human), UniProt P30405); test: Inhibitor binding to cyclophilin proteins by SPR, CypF; conditions: 1:1 binding model
Method in brief: (§1)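 A 1:1 model fitted to single-cycle kinetic SPR data gave association and dissociation rates and KD. Compound series injected for 1 min each at 50 μL/min, then 10 min dissociation. Running buffer HEPES pH 7.4 with NaCl, P20 and 3% DMSO; target protein was biotinylated avi-tagged cyclophilin on a CAPture surface.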

[2] = test system: peripheral blood mononuclear cells (PBMC); test: Anti-proliferative or immunosuppressive activity, BrdU incorporation in PHA-stimulated PBMC; format: cell-based; conditions: PHA 3 μg/ml, 60 hour compound treatment; read-out: EMV PBMC IC50
Method in brief: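 BrdU ELISA read-out of DNA synthesis in freshly isolated PBMCs (two donors, 30,000 cells/well, X-VIVO 15). T-cell proliferation triggered with phytohemagglutinin at 3 μg/ml.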

[3] = biological target: cyclophilin A (CypA) (Homo sapiens (Human), UniProt P62937); test: Inhibitor binding to cyclophilin proteins by SPR, CypA; parameters: unit not given here; conditions: 1:1 binding model;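 note: Single-cycle kinetics on a Biacore T200, compound injected at several concentrations for 1 min each at 50 µL/min, then 10 min dissociation, in HEPES pH 7.4 buffer with 3% DMSO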
[4] = biological target: cyclophilin B (CypB) (Homo sapiens (Human), UniProt P23284); test: Inhibitor binding to cyclophilin proteins by SPR, CypB; parameters: unit not given here; conditions: 1:1 binding model
Method in brief: as §1

[5] = biological target: organic anion transporting polypeptide 1B1 (OATP1B1) (Homo sapiens (Human), UniProt Q9Y6L6); test: OATP assay in CHO-OATP1B1 cells;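 note: inhibition of probe substrate uptake into the cells, ten minutes exposure, accumulated substrate read by fluorescence once cells were lysed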
[6] = test system: genotype 1b subgenomic HCV replicon in Huh7.5 cells; format: cell-based, hepatitis C virus; conditions: read-out: RPLN-1b IC50
Method in brief: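 Replicon inhibition read as renilla luciferase signal versus DMSO controls after 72 h incubation, in Huh7.5 cells harbouring a genotype 1b subgenomic replicon; medium phenol red-free DMEM lacking G418. CC50 determined in parallel via Cell Titer-Glo.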

[7] = genotype 1b replicon, 72 h incubation

Sequence of CypF (P30405 30-207): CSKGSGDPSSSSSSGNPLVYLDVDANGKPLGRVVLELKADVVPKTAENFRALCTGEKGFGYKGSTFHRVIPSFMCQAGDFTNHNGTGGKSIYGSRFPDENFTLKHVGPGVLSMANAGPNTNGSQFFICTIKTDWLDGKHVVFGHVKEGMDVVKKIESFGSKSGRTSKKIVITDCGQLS
Sequence of cyclophilin A (CypA) (P62937 whole entry): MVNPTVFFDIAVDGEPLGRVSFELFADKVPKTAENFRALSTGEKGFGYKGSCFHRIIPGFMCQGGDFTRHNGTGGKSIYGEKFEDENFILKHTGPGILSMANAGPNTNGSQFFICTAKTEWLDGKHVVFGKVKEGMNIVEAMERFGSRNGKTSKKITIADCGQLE
Sequence of organic anion transporting polypeptide 1B1 (OATP1B1) (Q9Y6L6 whole entry): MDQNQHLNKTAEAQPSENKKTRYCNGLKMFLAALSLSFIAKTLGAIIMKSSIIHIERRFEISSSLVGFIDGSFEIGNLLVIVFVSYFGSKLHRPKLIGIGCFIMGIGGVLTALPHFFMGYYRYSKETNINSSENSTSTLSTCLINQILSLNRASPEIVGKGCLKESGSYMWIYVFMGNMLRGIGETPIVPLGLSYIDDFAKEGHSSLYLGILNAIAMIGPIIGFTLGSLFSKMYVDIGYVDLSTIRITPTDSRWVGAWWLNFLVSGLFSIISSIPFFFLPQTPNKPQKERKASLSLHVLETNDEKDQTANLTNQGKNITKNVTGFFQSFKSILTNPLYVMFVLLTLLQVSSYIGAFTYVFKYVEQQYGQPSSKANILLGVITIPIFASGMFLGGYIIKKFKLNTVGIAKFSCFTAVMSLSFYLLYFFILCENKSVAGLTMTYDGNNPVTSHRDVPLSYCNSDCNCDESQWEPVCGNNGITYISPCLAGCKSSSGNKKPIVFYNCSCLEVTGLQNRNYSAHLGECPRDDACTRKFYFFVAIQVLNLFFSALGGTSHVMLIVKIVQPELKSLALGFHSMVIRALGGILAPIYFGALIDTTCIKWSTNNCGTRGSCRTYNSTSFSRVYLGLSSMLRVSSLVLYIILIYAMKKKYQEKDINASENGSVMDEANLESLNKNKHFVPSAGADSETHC
Sequence of cyclophilin B (CypB) (P23284 34-216): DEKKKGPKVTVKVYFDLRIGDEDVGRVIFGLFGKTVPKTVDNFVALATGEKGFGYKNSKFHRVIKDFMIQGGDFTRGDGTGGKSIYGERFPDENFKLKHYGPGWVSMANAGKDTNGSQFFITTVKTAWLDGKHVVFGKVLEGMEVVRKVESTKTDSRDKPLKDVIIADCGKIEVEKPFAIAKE

| Compound | CypF Kd [1] [nM] | IC50 [2] [nM] | CypA Kd [3] | CypB Kd [4] | IC50 [5] [nM] | IC50 [6, 7] [nM] | IC50 [6] [nM] |
| --- | --- | --- | --- | --- | --- | --- | --- |
| C/C=C/C[C@@H](C)[C@@H](O)[C@H]1C(=O)N[C@@H](CC)C(=O)N(C)[C@H](C)C(=O)N(C)[C@@H]([C@H](C)CN2CCC3(CC2)OCCO3)C(=O)N[C@@H](C(C)C)C(=O)N(C)[C@@H](CC(C)C)C(=O)N[C@@H](C)C(=O)N[C@H](C)C(=O)N(C)[C@@H](CC(C)C)C(=O)N(C)[C@@H](CC(C)C)C(=O)N(C)[C@@H](C(C)C)C(=O)N1C [Compound 2.5.28, 3-[D-Ala]-4-[(2S,3R)-3-methyl-2-(methylamino)-4-(1,4-dioxa-8-azaspiro[4.5]decan-8-yl)butanoyl]-cyclosporin] (cyclo(A[dA][NMeL][NMeL][NMeV][MeBmt][Abu][dNMeA][X35]V[NMeL])) | 0.8 | 6100 | 1.4 | 0.8 | 2100 | 17 |  |
| C/C=C/C[C@@H](C)[C@@H](O)[C@H]1C(=O)N[C@@H](CC)C(=O)N(C)[C@H](C)C(=O)N(C)[C@@H]([C@H](C)CN2CCNC(=O)C2)C(=O)N[C@@H](C(C)C)C(=O)N(C)[C@@H](CC(C)C)C(=O)N[C@@H](C)C(=O)N[C@H](C)C(=O)N(C)[C@@H](CC(C)C)C(=O)N(C)[C@@H](CC(C)C)C(=O)N(C)[C@@H](C(C)C)C(=O)N1C [Compound 2.5.30, 3-[D-Ala]-4-[(2S,3R)-3-methyl-2-(methylamino)-4-(3-oxopiperazin-1-yl)butanoyl]-cyclosporin] (cyclo(A[dA][NMeL][NMeL][NMeV][MeBmt][Abu][dNMeA][X50]V[NMeL])) | 1.1 | 34100 | 1.7 | 1.0 | 2100 | 204 |  |
| C/C=C/C[C@@H](C)[C@@H](O)[C@H]1C(=O)N[C@@H](CC)C(=O)N(C)[C@H](C)C(=O)N(C)[C@@H]([C@H](C)CN2CCN(C(=O)OCC)CC2)C(=O)N[C@@H](C(C)C)C(=O)N(C)[C@@H](CC(C)C)C(=O)N[C@@H](C)C(=O)N[C@H](C)C(=O)N(C)[C@@H](CC(C)C)C(=O)N(C)[C@@H](CC(C)C)C(=O)N(C)[C@@H](C(C)C)C(=O)N1C [Compound 2.5.31, 3-[D-Ala]-4-[(2S,3R)-4-(4-(ethoxycarbonyl)piperazin-1-yl)-3-methyl-2-(methylamino)butanoyl]-cyclosporin] (cyclo(A[dA][NMeL][NMeL][NMeV][MeBmt][Abu][dNMeA][X54]V[NMeL])) | 1.3 | 18900 | 2.5 | 1.1 | 2100 | 55 |  |
| C/C=C/C[C@@H](C)[C@@H](O)[C@H]1C(=O)N[C@@H](CC)C(=O)N(C)[C@H](C)C(=O)N(C)[C@@H]([C@H](C)CN2CCC3(COC3)C2)C(=O)N[C@@H](C(C)C)C(=O)N(C)[C@@H](CC(C)C)C(=O)N[C@@H](C)C(=O)N[C@H](C)C(=O)N(C)[C@@H](CC(C)C)C(=O)N(C)[C@@H](CC(C)C)C(=O)N(C)[C@@H](C(C)C)C(=O)N1C [Compound 2.5.33, 3-[D-Ala]-4-[(2S,3R)-3-methyl-2-(methylamino)-4-(2-oxa-6-azaspiro[3.4]octan-6-yl)butanoyl]-cyclosporin] (cyclo(A[dA][NMeL][NMeL][NMeV][MeBmt][Abu][dNMeA][X51]V[NMeL])) | 0.8 | 10300 | 1.1 | 0.8 | 2000 | 46 |  |
| C/C=C/C[C@@H](C)[C@@H](O)[C@H]1C(=O)N[C@@H](CC)C(=O)N(C)[C@H](C)C(=O)N(C)[C@@H]([C@H](C)COCC(=O)N2CCN(C3CCOCC3)CC2)C(=O)N[C@@H](C(C)C)C(=O)N(C)[C@@H](CC(C)C)C(=O)N[C@@H](C)C(=O)N[C@H](C)C(=O)N(C)[C@@H](CC(C)C)C(=O)N(C)[C@@H](CC(C)C)C(=O)N(C)[C@@H](C(C)C)C(=O)N1C [Compound 2.6.2, 3-[D-Ala]-4-[(2S,3S)-4-(2-(4-cyclohexylpiperazin-1-yl)-2-oxoethoxy)-3-methyl-2-(methylamino)butanoyl]-cyclosporin] (cyclo([MeBmt][Abu][dNMeA][X27]V[NMeL]A[dA][NMeL][NMeL][NMeV])) | 0.6 | 17300 | 1.3 | 0.7 | 3500 |  | 140 |
| C/C=C/C[C@@H](C)[C@@H](O)[C@H]1C(=O)N[C@@H](CC)C(=O)N(C)[C@H](C)C(=O)N(C)[C@@H]([C@H](C)COCCN2C[C@@H](C)OC[C@H]2C)C(=O)N[C@@H](C(C)C)C(=O)N(C)[C@@H](CC(C)C)C(=O)N[C@@H](C)C(=O)N[C@H](C)C(=O)N(C)[C@@H](CC(C)C)C(=O)N(C)[C@@H](CC(C)C)C(=O)N(C)[C@@H](C(C)C)C(=O)N1C [Compound 2.8.4, 3-[D-Ala]-4-[(2S,3S)-4-(2-((2R,5R)-2,5-dimethylmorpholino)ethoxy)-3-methyl-2-(methylamino)butanoyl]-cyclosporin] (cyclo(A[dA][NMeL][NMeL][NMeV][MeBmt][Abu][dNMeA][X61]V[NMeL])) | 0.7 | 10700 | 0.9 | 0.7 | 3600 | 45 |  |
| C/C=C/C[C@@H](C)[C@@H](O)[C@H]1C(=O)N[C@@H](CC)C(=O)N(C)[C@H](C)C(=O)N(C)[C@@H]([C@H](C)COCCN2CCN(C(C)C)CC2)C(=O)N[C@@H](C(C)C)C(=O)N(C)[C@@H](CC(C)C)C(=O)N[C@@H](C)C(=O)N[C@H](C)C(=O)N(C)[C@@H](CC(C)C)C(=O)N(C)[C@@H](CC(C)C)C(=O)N(C)[C@@H](C(C)C)C(=O)N1C [Compound 2.8.5, 3-[D-Ala]-4-[(2S,3S)-4-(2-(4-isopropylpiperazin-1-yl)ethoxy)-3-methyl-2-(methylamino)butanoyl]-cyclosporin] (cyclo(A[dA][NMeL][NMeL][NMeV][MeBmt][Abu][dNMeA][X78]V[NMeL])) | 0.4 | 8100 | 0.6 | 0.5 | 4400 | 98.9 |  |
| C/C=C/C[C@@H](C)[C@@H](O)[C@H]1C(=O)N[C@@H](CC)C(=O)N(C)[C@H](C)C(=O)N(C)[C@@H]([C@H](C)COCCN2CC[C@H](OC)C2)C(=O)N[C@@H](C(C)C)C(=O)N(C)[C@@H](CC(C)C)C(=O)N[C@@H](C)C(=O)N[C@H](C)C(=O)N(C)[C@@H](CC(C)C)C(=O)N(C)[C@@H](CC(C)C)C(=O)N(C)[C@@H](C(C)C)C(=O)N1C [Compound 2.8.7, 3-[D-Ala]-4-[(2S,3S)-4-(2-((S)-3-methoxypyrrolidin-1-yl)ethoxy)-3-methyl-2-(methylamino)butanoyl]-cyclosporin] (cyclo(A[dA][NMeL][NMeL][NMeV][MeBmt][Abu][dNMeA][X73]V[NMeL])) | 0.3 | 6800 | 0.6 | 0.4 | 5000 | 45 |  |
| C/C=C/C[C@@H](C)[C@@H](O)[C@H]1C(=O)N[C@@H](CC)C(=O)N(C)[C@H](C)C(=O)N(C)[C@@H]([C@H](C)CCC(C)(C)OC(=O)N2CCN(C)CC2)C(=O)N[C@@H](C(C)C)C(=O)N(C)[C@@H](CC(C)C)C(=O)N[C@@H](C)C(=O)N[C@H](C)C(=O)N(C)[C@@H](CC(C)C)C(=O)N(C)[C@@H](CC(C)C)C(=O)N(C)[C@@H](C(C)C)C(=O)N1C [Compound 2.12.2, 3-[D-Ala]-4-[(2S,3R)-3,6-dimethyl-2-(methylamino)-6-((4-methylpiperazine-1-carbonyl)oxy)heptanoyl]-cyclosporin] (cyclo(A[dA][NMeL][NMeL][NMeV][MeBmt][Abu][dNMeA][X75]V[NMeL])) | 10 | 11600 | 22 | 6.8 | 4700 | 180 |  |
| C/C=C/C[C@@H](C)[C@@H](O)[C@H]1C(=O)N[C@@H](CC)C(=O)N(C)[C@H](C)C(=O)N(C)[C@@H]([C@H](C)CCC(=O)N2CC3CCC(C2)O3)C(=O)N[C@@H](C(C)C)C(=O)N(C)[C@@H](CC(C)C)C(=O)N[C@@H](C)C(=O)N[C@H](C)C(=O)N(C)[C@@H](CC(C)C)C(=O)N(C)[C@@H](CC(C)C)C(=O)N(C)[C@@H](C(C)C)C(=O)N1C [Compound 2.14.2, 3-[D-Ala]-4-[(2S,3R)-6-(8-oxa-3-azabicyclo[3.2.1]octan-3-yl)-3-methyl-2-(methylamino)-6-oxohexanoyl]-cyclosporin] (cyclo(A[dA][NMeL][NMeL][NMeV][MeBmt][Abu][dNMeA][X45]V[NMeL])) | 1 | 6700 | 2.4 | 0.9 | 1900 | 75 |  |
| C/C=C/C[C@@H](C)[C@@H](O)[C@H]1C(=O)N[C@@H](CC)C(=O)N(C)[C@H](C)C(=O)N(C)[C@@H]([C@H](C)CCC(=O)N2CCN(C)CC2)C(=O)N[C@@H](C(C)C)C(=O)N(C)[C@@H](CC(C)C)C(=O)N[C@@H](C)C(=O)N[C@H](C)C(=O)N(C)[C@@H](CC(C)C)C(=O)N(C)[C@@H](CC(C)C)C(=O)N(C)[C@@H](C(C)C)C(=O)N1C [Compound 2.14.3, 3-[D-Ala]-4-[(2S,3R)-3-methyl-2-(methylamino)-6-(4-methylpiperazin-1-yl)-6-oxohexanoyl]-cyclosporin] (cyclo(A[dA][NMeL][NMeL][NMeV][MeBmt][Abu][dNMeA][X49]V[NMeL])) | 0.9 | 14100 | 2.0 | 0.9 | 5400 | 190 |  |
